Columns and labels:
Type in all cases: cell-based
[1] = system: c-kit phosphorylation and downstream signaling (p-STAT3, p-ERK1/2) in the c-kit D816V mutant Ba/F3 cell line; assay: Western blot of c-kit phosphorylation and downstream signaling in c-kit D816V Ba/F3; details: 0.1, 1 and 10 μM, 2 hours, FIG. 2
Procedure: The inhibitory activities of control compounds and PHI-101 against c-kit phosphorylation and downstream signaling (p-STAT3, p-ERK1/2) in the c-kit D816V mutant Ba/F3 cell line were measured, and as the control compounds, sunitinib and dasatinib were used.
(§1) Specifically, the c-kit D816V mutant Ba/F3 cell line was dispensed at a concentration of 1×10^6 cells/ml, treated with each of the control compounds and PHI-101 at concentrations of 0.1, 1 and 10 μM, and then cultured for 2 hours. Next, lysates of the cells were obtained using lysis buffer (50 mM Tris-HCl pH 7.5, 1% NP40, 1 mM EDTA, 150 mM NaCl, 5 mM, Na3VO4 and 2.5 mM NaF, and a protease inhibitor cocktail). Equal amounts of the cell lysates were electrophoresed using 8% SDS-PAGE gel at 100 V for 1 hour and 30 minutes, and the separated protein was electrically transferred to nitrocellulose membranes. The membranes were blocked with 5% skim milk at room temperature for 30 minutes, and allowed to react with primary antibodies (diluted 1:5,000), including p-c-kit tyrosine 719 (Y719), p-STAT3 tyrosine 705 (Y705) and p-ERK1/2 threonine 202/tyrosine 204 (T202/Y204) at 4° C. for 16 to 20 hours. […] Next, the membranes were washed three times with TBST for 5 minutes each time and treated with a chemiluminescent substrate reagent, and the expression level of the protein was measured by detecting luminescence with an X-ray film in the dark.

[2] = system: HMC-1.2 cell line; assay: Annexin V-PI FACS apoptosis analysis, HMC-1.2; details: HMC-1.2, 0.1 and 1 μM, FIG. 7
Procedure: Specifically, the c-kit D816V mutant Ba/F3 cell line was adjusted to a concentration of 1×10^6 cells/ml and treated with each of PHI-101 at concentrations of 0.1, 1 and 10 μM and the control compound sunitinib at concentrations of 1 and 10 μM for 24 hours. Thereafter, the medium was removed and the cells were washed once with 1 ml PBS. The PBS was removed by centrifugation at 1,000 rpm for 5 minutes. The cells were dissolved in 100 μl of PBS containing Ca^2+ and Mg^2+ and allowed to react with 5 μl of Annexin V for 20 minutes. After completion of the reaction, 400 μl of PBS containing Ca^2+ and Mg^2+ was added, and 5 μl of propidium iodide (PI) was added, and then the degree of apoptotic cell death was analyzed by FACS (fluorescence activated cell sorter) assay using a flow cytometer (FACS-C6, BD).
(§2) Specifically, the apoptotic effect of PHI-101 against the HMC-1.2 cell line was analyzed in the same manner as in Example 1-3, except that the HMC-1.2 cell line was treated with each of the control compounds at a concentration of 1 μM and PHI-101 at concentrations of 0.1 and 1 μM.

[3] = system: Ba/F3 cell line with a c-kit D816V mutation; assay: Growth inhibition of c-kit D816V Ba/F3 cell line (Celltiter glo); details: GI50 comparison, Table 1
Procedure: Specifically, 100 μl of a Ba/F3 cell line with a c-kit D816V mutation (FIG. 1) was added to each well of a 96-well plate at a concentration of 10,000 cells/100 μl. After 4 hours, 100 μl of the Ba/F3 cell line was treated with 0.5 μl of each of control compounds and PHI-101 (10-point 1:3 serial dilutions) to a final concentration of up to 50 μM, and cultured at 37° C. under 5% CO2 for 72 hours. As the control compounds, imatinib and sunitinib which are c-kit inhibitors were used. After culture, the cells were counted using a Celltiter glo assay kit (Promega), and the 50% growth inhibition values (GI50, μM) of the control compounds and PHI-101 were measured.

[4] = system: cleaved PARP and cleaved caspase-3 in HMC-1.2 cell line; assay: Western blot of cleaved PARP and cleaved caspase-3, HMC-1.2; details: HMC-1.2, 0.1 and 1 μM, controls 1 μM, FIG. 8
Procedure: as §1, with “membranes.” for “membranes. The membranes were blocked with 5% skim milk at room temperature for 30 minutes, and allowed to react with primary antibodies (diluted 1:5,000), including p-c-kit tyrosine 719 (Y719), p-STAT3 tyrosine 705 (Y705) and p-ERK1/2 threonine 202/tyrosine 204 (T202/Y204) at 4° C. for 16 to 20 hours.”
A mastocytosis cell line was treated with PHI-101, and the levels of cleaved PARP and cleaved caspase-3, which are apoptosis markers, were analyzed. […]
as §2, with “1-2,” for “1-3,”, “μM, and that cleaved PARP and cleaved caspase-3, each diluted at 1:5,000, were used as primary antibodies.” for “μM.”

[5] = system: HMC-1.2 cell line (imatinib-resistant cell line, having c-kit G560V/D816V mutation); assay: Growth inhibition of mastocytosis cell line HMC-1.2; details: HMC-1.2, 72 hours
Procedure: [Worded in the source for another cell line; this cell line is reported under the same test.] Specifically, 100 μl of a Ba/F3 cell line with a c-kit D816V mutation (FIG. 1) was added to each well of a 96-well plate at a concentration of 10,000 cells/100 μl. […] As the control compounds, imatinib and sunitinib which are c-kit inhibitors were used.

Question: Which results are given for NC(=O)Nc1cc(C#Cc2cccc(F)c2)sc1C(=O)N[C@H]1CCCNC1 [PHI-101]?
Answer: inhibitory activity against p-c-kit (Y719) phosphorylation [1]: higher inhibitory activity against p-c-kit (Y719) phosphorylation than the control compounds; apoptosis induction (Annexin V-PI FACS) [2]: strongly induced apoptosis even at a concentration of 1 μM; selectivity for c-kit D816V Ba/F3 over parental Ba/F3 [3]: higher selectivity for the c-kit D816V Ba/F3 mutant cell line than for the parental Ba/F3 cell line; levels of cleaved PARP and cleaved caspase-3 [4]: higher than those in the HMC-1.2 cell lines treated with the control compounds; GI50 [5]: 0.033 µM

— patent US20230263792A1, “USE OF 2,3,5-SUBSTITUTED THIOPHENE COMPOUND FOR PREVENTING, ALLEVIATION, OR TREATING MASTOCYTOSIS” (PHAROS IBIO CO., LTD, priority 2020, published 2023)
